IC50 data for 63 compounds are collected here from ChEMBL document CHEMBL3879881, “Substituted pyrazolyl compounds for the treatment of inflammation” (2005).

This assay has as its target T1, Inhibitor of nuclear factor kappa-B kinase subunit beta (Homo sapiens, UniProt O14920).
T1 sequence (O14920 whole entry): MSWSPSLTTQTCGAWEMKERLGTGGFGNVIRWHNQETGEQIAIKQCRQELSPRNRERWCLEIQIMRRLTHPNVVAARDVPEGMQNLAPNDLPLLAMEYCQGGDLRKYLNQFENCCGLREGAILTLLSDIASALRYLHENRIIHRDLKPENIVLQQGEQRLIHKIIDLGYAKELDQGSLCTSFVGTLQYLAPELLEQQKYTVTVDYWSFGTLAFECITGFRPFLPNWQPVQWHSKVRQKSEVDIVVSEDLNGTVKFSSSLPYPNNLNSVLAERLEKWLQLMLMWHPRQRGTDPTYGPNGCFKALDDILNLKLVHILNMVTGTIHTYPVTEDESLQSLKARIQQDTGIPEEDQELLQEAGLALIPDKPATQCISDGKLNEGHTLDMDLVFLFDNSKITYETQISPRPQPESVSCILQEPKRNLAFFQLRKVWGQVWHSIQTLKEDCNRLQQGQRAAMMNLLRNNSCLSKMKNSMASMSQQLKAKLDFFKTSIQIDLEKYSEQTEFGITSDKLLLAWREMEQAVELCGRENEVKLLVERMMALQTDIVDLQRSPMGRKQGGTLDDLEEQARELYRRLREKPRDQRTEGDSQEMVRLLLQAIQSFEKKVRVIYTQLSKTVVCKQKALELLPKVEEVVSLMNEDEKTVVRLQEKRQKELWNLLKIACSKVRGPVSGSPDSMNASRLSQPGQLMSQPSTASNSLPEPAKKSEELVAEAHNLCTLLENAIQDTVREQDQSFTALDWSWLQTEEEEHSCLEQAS
Nature of the assay: Inhibition of human recombinant C-terminal FLAG-epitope-tagged IKK2 expressed in baculovirus using biotinylated IkappaBalpha peptide as substrate assessed as decrease in [gamma-33P]-ATP incorporation in substrate after 30 mins by scintillation counting method.
For `CS(=O)(=O)c1ccc(-n2nc(C(N)=O)c3c2-c2cc(NC(=O)c4cc(Cl)ncc4Cl)ccc2CC3)cc1`, the half-maximal inhibitory concentration (IC50) is no more than 1000 nM.
The result for `C[S+]([O-])c1ccc(-n2nc(C(N)=O)c3c2-c2cc(NC(=O)c4ccncc4Cl)ccc2CC3)cc1` (stereo not drawn) reads no more than 1000 nM; that for `NC(=O)c1nn(-c2ccc(S(N)(=O)=O)cc2)c2c1CCc1ccc(NC(=O)c3c(Cl)cccc3Cl)cc1-2`, no more than 1000 nM; that for `CC1(C)OCC(COc2ccc(-n3nc(C(N)=O)c4c3-c3cc(NC(=O)c5ccc(S(C)(=O)=O)cc5Cl)ccc3CC4)cc2)O1` (stereo not drawn), 1000 to 10000 nM.
For `NC(=O)c1nn(-c2ccncc2)c2c1CCc1ccc(NC(=O)c3cc(Cl)ncc3Cl)cc1-2`, the concentration for half-maximal inhibition (IC50) was no more than 1000 nM.
On to `NC(=O)c1nn(-c2ccc(S(N)(=O)=O)cc2)c2c1CCc1ccc(NC(=O)c3cccc(C(F)(F)F)c3)cc1-2`, for which the IC50 is 1000 to 10000 nM.
For the compound `NC(=O)c1nn(-c2ccc(S(N)(=O)=O)cc2)c2c1CCc1ccc(NS(=O)(=O)c3cc(Cl)ccc3Cl)cc1-2`, the IC50 lay in the range of 1000 to 10000 nM.
The result for `Cc1cccc(S(=O)(=O)Nc2ccc3c(c2)-c2c(c(C(N)=O)nn2-c2ccc(S(N)(=O)=O)cc2)CC3)c1` reads 10000 to 100000 nM; that for `NC(=O)c1nn(-c2ccc(F)cc2)c2c1CCc1ccc(NC(=O)c3cc(N4CCCNCC4)ncc3Cl)cc1-2`, no more than 1000 nM.
The result for `CC(=O)CCc1ccc(-n2nc(C(N)=O)c3c2-c2cc(NS(C)(=O)=O)ccc2CC3)cc1` reads 1000 to 10000 nM; that for `Cc1c(O)cccc1C(=O)Nc1ccc2c(c1)-c1c(c(C(N)=O)nn1-c1ccc(S(C)(=O)=O)cc1)CC2`, no more than 1000 nM.
The result for `CN1CCN(c2ccc(Cl)c(C(=O)Nc3ccc4c(c3)-c3c(c(C(N)=O)nn3-c3ccc5c(c3)OCO5)CC4)c2)CC1` reads no more than 1000 nM; that for `NC(=O)c1nn(-c2ccc(S(N)(=O)=O)cc2)c2c1CCc1ccc(NS(=O)(=O)c3ccccc3)cc1-2`, 1000 to 10000 nM.
For the compound `CC(=O)Nc1ccc2c(c1)-c1c(c(C(N)=O)nn1-c1ccc(S(N)(=O)=O)cc1)CC2`, the IC50 fell in the range of 10000 to 100000 nM.
As to `NC(=O)c1nn(-c2ccc(C(F)(F)F)cc2)c2c1CCc1ccc(NC(=O)c3ccccc3Cl)cc1-2`, the IC50 fell in the range of 1000 to 10000 nM.
With `COc1cccc(C(=O)Nc2ccc3c(c2)-c2c(c(C(N)=O)nn2-c2ccc(S(C)(=O)=O)cc2)CC3)c1`, the IC50 was in the range of 1000 to 10000 nM.
With `NC(=O)c1nn(-c2ccc(NC(=O)c3ccccc3Cl)cc2)c2c1CCc1ccc(NC(=O)c3ccccc3Cl)cc1-2` the figure was 1000 to 10000 nM.
The result for `N#Cc1cc(C(=O)Nc2ccc3c(c2)-c2c(c(C(N)=O)nn2-c2ccc4c(c2)OCO4)CC3)c(Cl)cn1` reads no more than 1000 nM; that for `CC(=O)Nc1nc(C)c(S(=O)(=O)Nc2ccc3c(c2)-c2c(c(C(N)=O)nn2-c2ccc(S(N)(=O)=O)cc2)CC3)s1`, 1000 to 10000 nM; that for `CN(C)CCc1cc(C(=O)Nc2ccc3c(c2)-c2c(c(C(N)=O)nn2-c2ccc(F)cc2)CC3)c(Cl)cn1`, no more than 1000 nM.
The result for `Cc1ccc(S(=O)(=O)Nc2ccc3c(c2)-c2c(c(C(N)=O)nn2-c2ccc(S(N)(=O)=O)cc2)CC3)cc1` reads 10000 to 100000 nM.
In the case of `NC(=O)c1nn(-c2cccc(F)c2)c2c1CCc1ccc(NC(=O)c3cccc(Cl)c3Cl)cc1-2`, the IC50 is 1000 to 10000 nM.
As for `CC(C)(O)/C=C/c1ccc(-n2nc(C(N)=O)c3c2-c2cc(NC(=O)c4cccnc4Cl)ccc2CC3)cc1`, the IC50 lay in the range of 1000 to 10000 nM.
On to `C[S+]([O-])c1ccc(-n2nc(C(N)=O)c3c2-c2cc(NC(=O)c4ccccc4Cl)ccc2CC3)cc1` (stereo not drawn), for which the concentration for half-maximal inhibition (IC50) was no more than 1000 nM.
With `NC(=O)c1nn(-c2ccc(CCCO)cc2)c2c1CCc1ccc(NC(=O)c3cccnc3Cl)cc1-2` the figure was no more than 1000 nM; with `CN1CCN(c2cc(C(=O)Nc3ccc4c(c3)-c3c(c(C(N)=O)nn3-c3ccc(S(C)(=O)=O)cc3)CC4)c(Cl)cn2)CC1`, no more than 1000 nM; with `CC1Cc2c(C(N)=O)nn(-c3ccc(F)cc3F)c2-c2cc(NC(=O)c3ccncc3Cl)ccc21` (stereo not drawn), no more than 1000 nM.
As to `C[C@@H]1CN(c2cc(C(=O)Nc3ccc4c(c3)-c3c(c(C(N)=O)nn3-c3ccc(F)cc3)CC4)c(Cl)cn2)CCN1C`, the IC50 is no more than 1000 nM.
`COc1cccc(CC(=O)Nc2ccc3c(c2)-c2c(c(C(N)=O)nn2-c2ccc(S(N)(=O)=O)cc2)CC3)c1`: the 50% inhibitory concentration (IC50) lay within 1000 to 10000 nM.
With `NC(=O)c1nn(-c2ccc(S(N)(=O)=O)cc2)c2c1CCc1ccc(NC(=O)c3cccc(Cl)c3)cc1-2` the figure was no more than 1000 nM; with `C[S+]([O-])c1ccc(-n2nc(C(N)=O)c3c2-c2cc(NC(=O)c4cc5c(cc4Cl)OCO5)ccc2CC3)cc1` (stereo not drawn), no more than 1000 nM; with `CN(C)C(=O)/C=C/c1ccc(-n2nc(C(N)=O)c3c2-c2cc(NC(=O)c4cccnc4Cl)ccc2CC3)cc1`, 1000 to 10000 nM.
With `COCC(=O)Nc1ccc2c(c1)-c1c(c(C(N)=O)nn1-c1ccc(S(N)(=O)=O)cc1)CC2` the figure was 1000 to 10000 nM; with `CC1Cc2c(C(N)=O)nn(-c3ccc(F)cc3)c2-c2cc(NC(=O)c3cccnc3Cl)ccc21` (stereo not drawn), no more than 1000 nM.
With `CC1(C)OCC(COc2ccc(-n3nc(C(N)=O)c4c3-c3cc(NC(=O)c5ccccc5Cl)ccc3CC4)cc2)O1` (stereo not drawn) the figure was no more than 1000 nM; with `CCCS(=O)(=O)c1ccc(-n2nc(C(N)=O)c3c2-c2cc(NC(=O)c4cc(NC(=O)OC(C)(C)C)ccc4Cl)ccc2CC3)cc1`, 1000 to 10000 nM.
Turning to `NC(=O)c1nn(-c2ccc(F)cc2)c2c1CCc1ccc(NC(=O)c3ccnc(N4CCOCC4)c3)cc1-2`, the 50% inhibitory concentration (IC50) is no more than 1000 nM.
As to `NC(=O)c1nn(-c2cccc(F)c2)c2c1CCc1ccc(NC(=O)c3cccc(F)c3F)cc1-2`, the IC50 lay within 1000 to 10000 nM.
For `C[S+]([O-])c1ccc(-n2nc(C(N)=O)c3c2-c2cc(NC(=O)c4cccnc4Cl)ccc2CC3)cc1` (stereo not drawn), the IC50 is no more than 1000 nM.
The result for `CCS(=O)(=O)c1ccc(-n2nc(C(N)=O)c3c2-c2cc(N)ccc2CC3)cc1` reads 1000 to 10000 nM.
The result for `Cc1ccccc1C(=O)Nc1ccc2c(c1)-c1c(c(C(N)=O)nn1-c1ccc(Br)cc1)CC2` reads no more than 1000 nM; that for `NC(=O)c1nn(-c2ccc(S(N)(=O)=O)cc2)c2c1CCc1ccc(NS(=O)(=O)c3cccc4nonc34)cc1-2`, 1000 to 10000 nM.
The result for `CN1CCN(c2ncc(Cl)c(C(=O)Nc3ccc4c(c3)-c3c(c(C(N)=O)nn3-c3ccc5c(c3)OCO5)CC4)n2)CC1` reads no more than 1000 nM; that for `COc1cccc(-n2nc(C(N)=O)c3c2-c2cc(NC(=O)c4ccccc4Cl)ccc2CC3)c1`, 1000 to 10000 nM; that for `C[C@H]1CN(c2cc(C(=O)Nc3ccc4c(c3)-c3c(c(C(N)=O)nn3-c3ccc(F)cc3)CC4)c(Cl)cn2)CCN1C`, no more than 1000 nM.
With `CNC(=O)/C=C/c1ccc(-n2nc(C(N)=O)c3c2-c2cc(N)ccc2CC3)cc1`, the half-maximal inhibitory concentration (IC50) lay within 1000 to 10000 nM.
The result for `CS(=O)(=O)c1ccc(-n2nc(C(N)=O)c3c2-c2cc(NC(=O)Cc4ccccc4)ccc2CC3)cc1` reads 1000 to 10000 nM.
In the case of `NCc1ccc(Cl)c(C(=O)Nc2ccc3c(c2)-c2c(c(C(N)=O)nn2-c2ccc4c(c2)OCO4)CC3)n1`, the IC50 lay in the range of 1000 to 10000 nM.
With `COc1ccc(C(=O)Nc2ccc3c(c2)-c2c(c(C(N)=O)nn2-c2ccc(S(N)(=O)=O)cc2)CC3)cc1`, the IC50 was no more than 1000 nM.
Take `NC(=O)c1nn(-c2ccc3c(c2)OCO3)c2c1CCc1ccc(NC(=O)CN3CCCC3)cc1-2`: the half-inhibitory concentration (IC50) was in the range of 1000 to 10000 nM.
As for `NC(=O)c1nn(-c2ccc(O)cc2)c2c1CCc1ccc(NC(=O)c3cc([N+](=O)[O-])ccc3Cl)cc1-2`, the IC50 was no more than 1000 nM.
Take `COc1ccc(-c2ccc(-n3nc(C(N)=O)c4c3-c3cc(NC(=O)c5ccccc5Cl)ccc3CC4)cc2)cc1OC`: the half-maximal inhibitory concentration (IC50) lay in the range of 1000 to 10000 nM.
Turning to `Cc1cccc(C(=O)Nc2ccc3c(c2)-c2c(c(C(N)=O)nn2-c2ccc(S(C)(=O)=O)cc2)CC3)c1C`, the half-inhibitory concentration (IC50) was in the range of 1000 to 10000 nM.
The result for `CCCS(=O)(=O)c1ccc(-n2nc(C(N)=O)c3c2-c2cc(NS(C)(=O)=O)ccc2CC3)cc1` reads 1000 to 10000 nM.
With `CSc1ccccc1C(=O)Nc1ccc2c(c1)-c1c(c(C(N)=O)nn1-c1ccc(S(C)(=O)=O)cc1)CC2` the figure was 1000 to 10000 nM; with `NC(=O)c1nn(-c2ccc(-c3cccc(CO)c3)cc2)c2c1CCc1ccc(NC(=O)c3ccccc3Cl)cc1-2`, 1000 to 10000 nM.
With `CN1CCN(c2cc(C(=O)Nc3ccc4c(c3)-c3c(c(C(N)=O)nn3-c3ccncc3)CC4)c(Cl)cn2)CC1` the figure was no more than 1000 nM; with `NC(=O)c1nn(-c2ccc3c(c2)OCO3)c2c1CCc1ccc(NC(=O)c3cc(Cl)ncc3Cl)cc1-2`, no more than 1000 nM.
On to `Cc1cccc(C(=O)Nc2ccc3c(c2)-c2c(c(C(N)=O)nn2-c2ccc(S(N)(=O)=O)cc2)CC3)c1`, for which the IC50 was no more than 1000 nM.
With `NC(=O)c1nn(-c2ccc(S(N)(=O)=O)cc2)c2c1CCc1ccc(N)cc1-2` the figure was no more than 1000 nM.
Regarding `CC(=O)c1ccc(C(=O)Nc2ccc3c(c2)-c2c(c(C(N)=O)nn2-c2ccc4c(c2)OCO4)CC3)cc1`, the IC50 is 1000 to 10000 nM.
For `C[C@H]1CN(c2cc(C(=O)Nc3ccc4c(c3)-c3c(c(C(N)=O)nn3-c3ccc(F)cc3)CC4)c(Cl)cn2)CCN1`, the IC50 was no more than 1000 nM.
The result for `NC(=O)c1nn(-c2ccc(S(N)(=O)=O)cc2)c2c1CCc1ccc(NS(=O)(=O)C(F)(F)F)cc1-2` reads 10000 to 100000 nM.

Usually IC50 stands for the concentration at which inhibition is half-maximal.
